Experimental data published in ChEMBL document CHEMBL3885881, “DrugMatrix”.

Species on record: Rattus norvegicus
Assay: DrugMatrix - Regimen: Daily Repeat
Type: toxicity, organism-based, Sprague-Dawley
Set-up: regimen Daily Repeat, gender Male, age 6-8 weeks
Conditions: in vivo, po, route oral GAVAGE, […]; for ABSOLUTE BASOPHIL / ABSOLUTE EOSINOPHIL / ABSOLUTE LYMPHOCYTE / ABSOLUTE MONOCYTE / BASOPHIL / EOSINOPHIL / ERYTHROCYTE COUNT / HEMATOCRIT / HEMOGLOBIN / LEUKOCYTE COUNT / LYMPHOCYTE / MEAN CORPUSCULAR HEMOGLOBIN / MEAN CORPUSCULAR HEMOGLOBIN CONCENTRATION / MEAN CORPUSCULAR VOLUME / MONOCYTE / NEUTROPHIL / PLATELET COUNT: tissue Blood
[1] = 0 mg/kg, 72 h, dose level Control, time 3 day
[2] = 0 mg/kg, 72 h, tissue Plasma, dose level Control, time 3 day
[3] = 0 mg/kg, 120 h, dose level Control, time 5 day
[4] = 0 mg/kg, 120 h, tissue Plasma, dose level Control, time 5 day
[5] = 0 mg/kg, dose level Control, time 14 day
[6] = 0 mg/kg, tissue Plasma, dose level Control, time 14 day
[7] = 40 mg/kg, 72 h, dose level Low, time 3 day
[8] = 40 mg/kg, 72 h, tissue Plasma, dose level Low, time 3 day

Compound: C=CCN [ALLYLAMINE]
- ABSOLUTE BASOPHIL [1]: 50 cells/µL
- ABSOLUTE EOSINOPHIL [1]: 43.3 cells/µL
- ABSOLUTE LYMPHOCYTE [1]: 9670 cells/µL
- ABSOLUTE MONOCYTE [1]: 210 cells/µL
- BASOPHIL [1]: 0.4%
- EOSINOPHIL [1]: 0.37%
- ERYTHROCYTE COUNT [1]: 6.82 x10E6/uL
- HEMATOCRIT [1]: 46.77%
- HEMOGLOBIN [1]: 14.53 G/DL
- LEUKOCYTE COUNT [1]: 11.77 x10E3/uL
- LYMPHOCYTE [1]: 82.1%
- MEAN CORPUSCULAR HEMOGLOBIN [1]: 21.33 pg
- MEAN CORPUSCULAR HEMOGLOBIN CONCENTRATION [1]: 31.13 G/DL
- MEAN CORPUSCULAR VOLUME [1]: 68.57 fL
- MONOCYTE [1]: 1.8%
- NEUTROPHIL [1]: 14.83%
- PLATELET COUNT [1]: 1303.33 x10E3/uL
- ALANINE AMINOTRANSFERASE [2]: 46.67 u/L
- ALBUMIN [2]: 4.17 G/DL
- ALKALINE PHOSPHATASE [2]: 530 u/L
- ASPARTATE AMINOTRANSFERASE [2]: 81.33 u/L
- BLOOD UREA NITROGEN [2]: 17.67 mg/dL
- CARBON DIOXIDE [2]: 41.67 mmol/L
- CHLORIDE [2]: 102 MEQ/L
- CHOLESTEROL [2]: 70.33 mg/dL
- CREATINE PHOSPHOKINASE [2]: 372.67 u/L
- CREATININE [2]: 0.5 mg/dL
- GLUCOSE [2]: 184 mg/dL
- LIPASE [2]: 13.33 u/L
- PHOSPHORUS [2]: 10.2 mg/dL
- POTASSIUM [2]: 6.13 MEQ/L
- SODIUM [2]: 145 MEQ/L
- TOTAL BILIRUBIN [2]: 0.43 mg/dL
- TOTAL PROTEIN [2]: 6.7 G/DL
- URIC ACID [2]: 0.83 mg/dL
- ABSOLUTE BASOPHIL [3]: 33.3 cells/µL
- ABSOLUTE EOSINOPHIL [3]: 56.7 cells/µL
- ABSOLUTE LYMPHOCYTE [3]: 9220 cells/µL
- ABSOLUTE MONOCYTE [3]: 230 cells/µL
- BASOPHIL [3]: 0.3%
- EOSINOPHIL [3]: 0.5%
- ERYTHROCYTE COUNT [3]: 6.62 x10E6/uL
- HEMATOCRIT [3]: 46.43%
- HEMOGLOBIN [3]: 14.3 G/DL
- LEUKOCYTE COUNT [3]: 10.96 x10E3/uL
- LYMPHOCYTE [3]: 83.83%
- MEAN CORPUSCULAR HEMOGLOBIN [3]: 21.57 pg
- MEAN CORPUSCULAR HEMOGLOBIN CONCENTRATION [3]: 30.77 G/DL
- MEAN CORPUSCULAR VOLUME [3]: 70.13 fL
- MONOCYTE [3]: 2.1%
- NEUTROPHIL [3]: 12.53%
- PLATELET COUNT [3]: 1056.67 x10E3/uL
- ALANINE AMINOTRANSFERASE [4]: 41.33 u/L
- ALBUMIN [4]: 4.07 G/DL
- ALKALINE PHOSPHATASE [4]: 603.33 u/L
- ASPARTATE AMINOTRANSFERASE [4]: 80 u/L
- BLOOD UREA NITROGEN [4]: 14.67 mg/dL
- CARBON DIOXIDE [4]: 43 mmol/L
- CHLORIDE [4]: 104 MEQ/L
- CHOLESTEROL [4]: 88.33 mg/dL
- CREATINE PHOSPHOKINASE [4]: 391.67 u/L
- CREATININE [4]: 0.47 mg/dL
- GLUCOSE [4]: 156 mg/dL
- LIPASE [4]: 10.67 u/L
- PHOSPHORUS [4]: 9.03 mg/dL
- POTASSIUM [4]: 6.1 MEQ/L
- SODIUM [4]: 145.67 MEQ/L
- TOTAL BILIRUBIN [4]: 0.37 mg/dL
- TOTAL PROTEIN [4]: 6.53 G/DL
- URIC ACID [4]: 0.5 mg/dL
- ABSOLUTE BASOPHIL [5]: 73.3 cells/µL
- ABSOLUTE EOSINOPHIL [5]: 60 cells/µL
- ABSOLUTE LYMPHOCYTE [5]: 12200 cells/µL
- ABSOLUTE MONOCYTE [5]: 250 cells/µL
- BASOPHIL [5]: 0.5%
- EOSINOPHIL [5]: 0.37%
- ERYTHROCYTE COUNT [5]: 7.33 x10E6/uL
- HEMATOCRIT [5]: 44.3%
- HEMOGLOBIN [5]: 14.77 G/DL
- LEUKOCYTE COUNT [5]: 14.86 x10E3/uL
- LYMPHOCYTE [5]: 81.87%
- MEAN CORPUSCULAR HEMOGLOBIN [5]: 20.2 pg
- MEAN CORPUSCULAR HEMOGLOBIN CONCENTRATION [5]: 33.33 G/DL
- MEAN CORPUSCULAR VOLUME [5]: 60.57 fL
- MONOCYTE [5]: 1.63%
- NEUTROPHIL [5]: 14.93%
- PLATELET COUNT [5]: 1101.67 x10E3/uL
- ALANINE AMINOTRANSFERASE [6]: 31.67 u/L
- ALBUMIN [6]: 3.83 G/DL
- ALKALINE PHOSPHATASE [6]: 430.67 u/L
- ASPARTATE AMINOTRANSFERASE [6]: 87 u/L
- BLOOD UREA NITROGEN [6]: 14.33 mg/dL
- CARBON DIOXIDE [6]: 39 mmol/L
- CHLORIDE [6]: 104 MEQ/L
- CHOLESTEROL [6]: 66 mg/dL
- CREATINE PHOSPHOKINASE [6]: 441.67 u/L
- CREATININE [6]: 0.7 mg/dL
- GLUCOSE [6]: 125.67 mg/dL
- LACTATE DEHYDROGENASE [6]: 397.67 u/L
- LIPASE [6]: 12.33 u/L
- PHOSPHORUS [6]: 9.87 mg/dL
- POTASSIUM [6]: 5.93 MEQ/L
- SODIUM [6]: 145 MEQ/L
- TOTAL BILIRUBIN [6]: 0.37 mg/dL
- TOTAL PROTEIN [6]: 6.27 G/DL
- URIC ACID [6]: 0.67 mg/dL
- ABSOLUTE BASOPHIL [7]: 40 cells/µL
- ABSOLUTE EOSINOPHIL [7]: 60 cells/µL
- ABSOLUTE LYMPHOCYTE [7]: 9180 cells/µL
- ABSOLUTE MONOCYTE [7]: 300 cells/µL
- BASOPHIL [7]: 0.33%
- EOSINOPHIL [7]: 0.53%
- ERYTHROCYTE COUNT [7]: 7.09 x10E6/uL
- HEMATOCRIT [7]: 45.93%
- HEMOGLOBIN [7]: 14.27 G/DL
- LEUKOCYTE COUNT [7]: 11.66 x10E3/uL
- LYMPHOCYTE [7]: 78.7%
- MEAN CORPUSCULAR HEMOGLOBIN [7]: 20.07 pg
- MEAN CORPUSCULAR HEMOGLOBIN CONCENTRATION [7]: 31 G/DL
- MEAN CORPUSCULAR VOLUME [7]: 64.77 fL
- MONOCYTE [7]: 2.47%
- NEUTROPHIL [7]: 17.23%
- PLATELET COUNT [7]: 1151.67 x10E3/uL
- ALANINE AMINOTRANSFERASE [8]: 38 u/L
- ALBUMIN [8]: 3.8 G/DL
- ALKALINE PHOSPHATASE [8]: 546.67 u/L
- ASPARTATE AMINOTRANSFERASE [8]: 81.67 u/L
- BLOOD UREA NITROGEN [8]: 16.67 mg/dL
- CARBON DIOXIDE [8]: 38.67 mmol/L
- CHLORIDE [8]: 105.67 MEQ/L
- CHOLESTEROL [8]: 70.67 mg/dL
- CREATINE PHOSPHOKINASE [8]: 634.67 u/L
- CREATININE [8]: 0.6 mg/dL
- GLUCOSE [8]: 204.33 mg/dL
- LIPASE [8]: 283.33 u/L
- PHOSPHORUS [8]: 9.93 mg/dL
- POTASSIUM [8]: 6.43 MEQ/L
- SODIUM [8]: 146 MEQ/L
